Entries after “also recorded” stand apart in the source; their conditions may differ. Read-outs that look alike come from different tables or passages of the source. Peptide text beside a SMILES is read from it. * marks the point of attachment. Cbz = O=C(OCc1ccccc1)*
Legend:
[1] = tested on: human brain endothelial cells; test: proliferation of human brain endothelial cells (Quick cell proliferation assay kit); format: cell-based; conditions: various doses, 24 hours
Description: Primary cultures of human brain endothelial cells were plated at a density of 10^4 cells/[…] of EBM 4% in 96 wells culture plates and treated with various doses of γ-secretase and β-secretase inhibitors as indicated in the figure legends. Following 24 hours in culture, the EBM covering the cells was removed and assayed for Lacticodehydrogenase (LDH) activity using the cytotoxicity detection kit (Roche Diagnostic Corporation, Ind.). Cells were covered with […] of EBM 4% and cellular proliferation measured using the Quick cell proliferation assay kit (Biovision Research Products, Calif.).

APP [2] = test: carboxyl-terminal APP fragments in human brain endothelial cell lysates (immunoblotting); format: cell-based; conditions: 5 μM, 24 hours
Description: (§1) Confluent human brain endothelial cells (grown on 75 cm2 flasks with EBM 4% FBS medium) were treated for 24 hours with 5 μM of Z-VVL-CHO, 5 μM of L-685,458, 5 μM of OM99-2, 5 AM of DAPT or went untreated (control). Experiments were done in quadriplicate for each treatment condition. 6E10 (Signet), a mAb that recognizes residues 1-17 of human Aβ (Van Nostrand et al., Nature, 341, 546-549, 1989) was used to immunoprecipitate soluble APP generated following cleavage by α-secretase from cell culture medium. Immunoprecipitated material was resolved on a 4-20% gradient SDS-PAGE, transferred to PVDF membranes and immunodetected with mAb 22C11 (Roche Diagnostics) that recognizes the amino acids 66-81 of the N-terminal portion of APP (Hibich, C., J. Biol. Chem., 268, 26571-26577, 1993). Human brain endothelial cells were lysed on ice using MPERTM reagent (Pierce) supplemented with 1 mM PMSF and 1 mM of sodium-orthovanadate. Samples were sonicated and centrifuged at 10,000 g for 30 min at 4° C. The protein content of the lysates was determined using the BCA Protein assay kit (Pierce). Total lysates ([…] of protein/sample) were separated on a 4-20% gradient SDS-PAGE and transferred to PVDF membranes and immunoprobed with mAb 22C11 in order to detect full length APP and also immunoprobed with an Anti-APP-CT20 (Calbiochem) antibody which recognizes the amino acid residues 751-770 of the carboxyl terminal region of APP (Pinnix et al. 2001; J. Biol. Chem., 276, 481).

APP [3] = test: α-sAPP secretion by human brain endothelial cells (immunoprecipitation, immunoblotting); format: cell-based; conditions: 5 μM, 24 hours
Description: as §1

[4] = tested on: Human middle cerebral artery endothelial cells; test: capillary morphogenesis assay; format: cell-based
Description: Two hundred μl of Matrigel were placed into each well of a 24-well culture plate at 4° C. and allowed to polymerize by incubation at 37° C. Human middle cerebral artery endothelial cells (5×104) were seeded on the Matrigel in 1 ml of EBM containing 4% fetal calf serum. The cells were incubated at 37° C. for 20 hours in a humidified 5% CO2 atmosphere in the presence or absence of various doses of γ-secretase and β-secretase inhibitors as indicated in the figure legends. The experiments were performed in quadruplicate for each treatment condition. For each culture, 2 randomly chosen fields were photographed using a 4×objective. An experimenter unaware of the different treatments measured the total length of tube structures in each photograph using the Image Pro Plus software (Media Cybernetic, Inc., Md.). Capillary network lengths for the different treatment conditions were expressed as the percentage of capillary network lengths obtained in the control condition.

β-secretase = target: T1, β-secretase (Cricetulus griseus, UniProt G3IAK4); conditions: Chinese hamster ovary cells, wild-type APP751, cited from earlier work
T1 construct: endogenous in cells; host or cells: Chinese hamster ovary cells stably transfected with wild-type APP751
T1 sequence (G3IAK4 22-501): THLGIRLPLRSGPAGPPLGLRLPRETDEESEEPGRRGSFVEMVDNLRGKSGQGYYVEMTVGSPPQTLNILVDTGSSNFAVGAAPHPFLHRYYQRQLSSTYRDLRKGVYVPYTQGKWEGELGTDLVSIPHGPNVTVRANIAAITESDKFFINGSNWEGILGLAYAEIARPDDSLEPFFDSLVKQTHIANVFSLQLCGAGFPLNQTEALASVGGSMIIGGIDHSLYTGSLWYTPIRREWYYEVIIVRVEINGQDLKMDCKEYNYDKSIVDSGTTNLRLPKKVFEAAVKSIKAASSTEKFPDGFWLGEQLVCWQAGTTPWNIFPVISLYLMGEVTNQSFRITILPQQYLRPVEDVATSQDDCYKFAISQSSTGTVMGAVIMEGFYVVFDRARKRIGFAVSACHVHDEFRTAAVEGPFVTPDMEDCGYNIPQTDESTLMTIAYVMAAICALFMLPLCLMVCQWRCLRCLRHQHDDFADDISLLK

Row | Compound | proliferation of human brain endothelial cells, dose dependence [1] | accumulation of carboxyl-terminal APP fragments (APP CTF) (APP [2]) | secretion of α-sAPP (APP [3]) | secretion of α-sAPP (APP [3]; listed as Z-VVL-CHO) | formation of capillary structures, overall [4] | IC50 (β-secretase; read-out: formation of Aβ42, IC50) [nM] | IC50 (β-secretase; read-out: formation of Aβtotal, IC50) [nM]
1 | C[C@H](NC(=O)Cc1cc(F)cc(F)c1)C(=O)N[C@H](C(=O)OC(C)(C)C)c1ccccc1 [DAPT, N-[N-(3,5-difluorophenacetyl-L-alanyl)]-S-phenylglycine t-butyl ester] | dose dependently inhibited | stimulates; also recorded: promoted the accumulation | – | – | – | – | –
2 | CC(C)C[C@@H](C=O)NC(=O)[C@H](CC(C)C)NC(=O)[C@@H](NC(=O)OCc1ccccc1)C(C)C [Z-VLL-CHO, N-benzyloxycarbony-val-leu-leucinal] (Cbz-Val-Leu-Leu-aldehyde) | dose dependently inhibited | – | stimulated | significantly inceases | profoundly anti-angiogenic | 2500 | 700

Reference: US20040229816A1, “Anti-angiogenic and anti-tumoral properties of beta and gamma secretase inhibitors” (priority 2003, published 2004)
